Article PMC6120924, “YesU from Bacillus subtilis preferentially binds fucosylated glycans” (Scientific Reports, 2018)

Each compound was assayed against T1, YesU (Bacillus subtilis, UniProt O31524) (assay: SPR, steady state, single cycle, Biacore T100). Conditions: His-YesU on Ni-NTA chip; PBS-MgCl2 pH 7.4; 25 °C.
T1 construct: captured by His tag on NTA chip
T1 sequence (O31524 1-220): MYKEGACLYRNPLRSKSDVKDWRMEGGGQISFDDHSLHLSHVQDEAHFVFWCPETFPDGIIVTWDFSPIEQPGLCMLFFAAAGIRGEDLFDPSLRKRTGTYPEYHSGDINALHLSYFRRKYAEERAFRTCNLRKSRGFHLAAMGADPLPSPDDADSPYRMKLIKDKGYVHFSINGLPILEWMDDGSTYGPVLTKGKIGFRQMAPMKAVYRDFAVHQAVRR
Format: binding
Description: SPR, steady state, single cycle, Biacore T100 on YesU

Which Kd does the source give for `CC(=O)N[C@H]1C(O)O[C@H](CO)[C@@H](O[C@@H]2O[C@H](CO)[C@H](O)[C@H](O)[C@H]2O[C@@H]2O[C@@H](C)[C@@H](O)[C@@H](O)[C@@H]2O)[C@@H]1O` (stereo partly drawn) [7O, Fucα1-2Galβ1-4GlcNAc] here?
Its Kd is 340 ± 4 nM.

For `CC(=O)N[C@H]1C(O)O[C@H](CO)[C@@H](O[C@@H]2O[C@@H](C)[C@@H](O)[C@@H](O)[C@@H]2O)[C@@H]1O[C@@H]1O[C@H](CO)[C@H](O)[C@H](O)[C@H]1O` (stereo partly drawn) [7J, Galβ1-3(Fucα1-4)GlcNAc], which Kd is on record?
The Kd was 420 ± 4 nM.

Which Kd does the source give for `CC(=O)NC1C(OC2C(O)C(COC3OC(CO)C(OC4OC(CO)C(O)C(OC5OC(CO)C(OC6OC(CO)C(O)C(O)C6O)C(O)C5NC(C)=O)C4O)C(OC4OC(C)C(O)C(O)C4O)C3NC(C)=O)OC(OC3C(CO)OC(O)C(O)C3O)C2O)OC(CO)C(OC2OC(CO)C(O)C(O)C2O)C1O` (stereo not drawn) [8N, Galβ1-3GlcNAcβ1-3Galβ1-4(Fucα1-3)GlcNAcβ1-6(Galβ1-3 GlcNAcβ1-3)Galβ1-4Glc] here?
The Kd was 240 ± 20 nM.

With `CC(=O)N[C@H]1C(O)O[C@H](CO)[C@@H](O[C@@H]2O[C@@H](C)[C@@H](O)[C@@H](O)[C@@H]2O)[C@@H]1O[C@@H]1O[C@H](CO)[C@H](O)[C@H](OS(=O)(=O)O)[C@H]1O` (stereo partly drawn) [8A, SO3-3Galβ1-3(Fucα1-4)GlcNAc] as the compound, how does the Kd read?
The Kd was 2070 ± 20 nM.

`CC(=O)N[C@H]1C(O)O[C@H](CO)[C@@H](O[C@@H]2O[C@H](CO)[C@H](O)[C@H](O)[C@H]2O[C@@H]2O[C@@H](C)[C@@H](O)[C@@H](O)[C@@H]2O)[C@@H]1O[C@@H]1O[C@@H](C)[C@@H](O)[C@@H](O)[C@@H]1O` (stereo partly drawn) [7N, Fucα1-2Galβ1-4(Fucα1-3)GlcNAc] was tested. Which Kd did it give?
The Kd was 340 ± 2 nM.

With `CC(=O)N[C@H]1[C@H](O[C@H]2[C@@H](O)[C@@H](CO)O[C@@H](O[C@H]3[C@H](O[C@@H]4O[C@@H](C)[C@@H](O)[C@@H](O)[C@@H]4O)[C@@H](O)C(O)O[C@@H]3CO)[C@@H]2O)O[C@H](CO)[C@@H](O[C@@H]2O[C@@H](C)[C@@H](O)[C@@H](O)[C@@H]2O)[C@@H]1O[C@@H]1O[C@H](CO)[C@H](O)[C@H](O)[C@H]1O` (stereo partly drawn) [7E, Galβ1-3(Fucα1-4)GlcNAcβ1-3Galβ1-4(Fucα1-3)Glc] as the compound, how does the Kd read?
The Kd was 340 ± 10 nM.

With `CC(=O)N[C@H]1[C@H](O[C@H]2[C@@H](O)[C@@H](CO)O[C@@H](O[C@H]3[C@H](O)[C@@H](O)C(O)O[C@@H]3CO)[C@@H]2O)O[C@H](CO)[C@@H](O[C@@H]2O[C@H](CO)[C@H](O)[C@H](O)[C@H]2O)[C@@H]1O[C@@H]1O[C@@H](C)[C@@H](O)[C@@H](O)[C@@H]1O` (stereo partly drawn) [7C, Galβ1-4(Fucα1-3)GlcNAcβ1-3Galβ1-4Glc] as the compound, how does the Kd read?
Its Kd is 140 ± 1 nM.

For `CC(=O)N[C@H]1[C@H](O[C@H]2[C@@H](O)[C@@H](CO)O[C@@H](O[C@H]3[C@H](O)[C@@H](O)C(O)O[C@@H]3CO)[C@@H]2O)O[C@H](CO)[C@@H](O[C@@H]2O[C@H](CO)[C@H](O)[C@H](O)[C@H]2O)[C@@H]1O` (stereo partly drawn) [1H, Galβ1-4GlcNAcβ1-3Galβ1-4Glc], which Kd is on record?
The Kd was 440 ± 20 nM.

`CC(=O)N[C@H]1[C@H](O[C@H]2[C@@H](O)[C@@H](CO)O[C@@H](O[C@H]3[C@H](O)[C@@H](O)C(O)O[C@@H]3CO)[C@@H]2O)O[C@H](CO)[C@@H](O[C@@H]2O[C@H](CO)[C@H](O)[C@H](O)[C@H]2O[C@@H]2O[C@@H](C)[C@@H](O)[C@@H](O)[C@@H]2O)[C@@H]1O[C@@H]1O[C@@H](C)[C@@H](O)[C@@H](O)[C@@H]1O` (stereo partly drawn) [8H, Fucα1-2Galβ1-4(Fucα1-3)GlcNAcβ1-3Galβ1-4Glc] was tested. Which Kd did it give?
Its Kd is 1140 ± 30 nM.

With `C[C@@H]1O[C@@H](O[C@H]2C(O)O[C@H](CO)[C@H](O)[C@@H]2O)[C@@H](O)[C@H](O)[C@@H]1O` (stereo partly drawn) [7F, Fucα1-2Gal] as the compound, how does the Kd read?
The Kd was 360 ± 10 nM.

With `CC(=O)N[C@H]1[C@H](O[C@H]2[C@H](O)[C@@H](NC(C)=O)[C@H](O[C@H]3[C@H](O)[C@@H](NC(C)=O)C(O)O[C@@H]3CO)O[C@@H]2CO)O[C@H](CO)[C@@H](O[C@@H]2O[C@H](CO)[C@@H](O[C@@H]3O[C@H](CO)[C@@H](O[C@@H]4O[C@H](CO)[C@@H](O)[C@H](O)[C@H]4NC(C)=O)[C@H](O)[C@H]3NC(C)=O)[C@H](O)[C@H]2NC(C)=O)[C@@H]1O` (stereo partly drawn) [4D, GlcNAcβ1-4GlcNAcβ1-4GlcNAcβ1-4GlcNAcβ1-4GlcNAcβ 1-4GlcNAc] as the compound, how does the Kd read?
Its Kd is 1130 ± 20 nM.

Which Kd does the source give for `C[C@@H]1O[C@@H](O[C@H]2C(O)O[C@H](CO)[C@H](O)[C@@H]2O[C@H]2O[C@H](CO)[C@H](O)[C@H](O)[C@H]2O)[C@@H](O)[C@H](O)[C@@H]1O` (stereo partly drawn) [7M, Galα1-3(Fucα1-2)Gal] here?
Its Kd is 190 ± 3 nM.

With `CC(=O)N[C@H]1[C@@H](O[C@H]2[C@@H](O)[C@@H](CO)OC(O)[C@@H]2O[C@@H]2O[C@@H](C)[C@@H](O)[C@@H](O)[C@@H]2O)O[C@H](CO)[C@H](O)[C@@H]1O` (stereo partly drawn) [7K, GalNAcα1-3(Fucα1-2)Gal] as the compound, how does the Kd read?
Its Kd is 7630 ± 300 nM.

For `CC(=O)N[C@H]1[C@H](O[C@H]2[C@@H](O)[C@@H](CO)O[C@@H](O[C@H]3[C@H](O)[C@@H](O)C(O)O[C@@H]3CO)[C@@H]2O)O[C@H](CO)[C@@H](O)[C@@H]1O[C@@H]1O[C@H](CO)[C@H](O)[C@H](O)[C@H]1O[C@@H]1O[C@@H](C)[C@@H](O)[C@@H](O)[C@@H]1O` (stereo partly drawn) [7A, Fucα1-2Galβ1-3GlcNAcβ1-3Galβ1-4Glc], which Kd is on record?
The Kd was 1230 ± 20 nM.

How did the Kd turn out when `CC(=O)N[C@H]1C(O)O[C@H](CO)[C@@H](O[C@@H]2O[C@H](CO)[C@H](O)[C@H](O)[C@H]2O)[C@@H]1O[C@@H]1O[C@@H](C)[C@@H](O)[C@@H](O)[C@@H]1O` (stereo partly drawn) [7I, Galβ1-4(Fucα1-3)GlcNAc] was run?
The Kd was 150 ± 6 nM.
